Our source for the EC50 values is patent US11845752B2, “Substituted imidazo[1,5-a]pyrazines for the treatment of hepatitis B” (ALIGOS THERAPEUTICS, INC., priority 2020, dated 2023).

For orientation: EC50 means the concentration giving half of the maximal effect.

The first assay relates to HBV. Put plainly: HBV-DNA antiviral assay using HepG2.117 cells (intracellular HBV DNA by qPCR). The note with it: HBV DNA inhibition, 3 days incubation, read-out: EC50. The format is cell-based, HBV genotype D. In short, it runs like this:
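HepG2.117 cells (stably integrated genotype D HBV, Tet-off) seeded without doxycycline to induce pgRNA, then treated next day with 9 concentrations (4-fold dilutions, 2% DMSO) for 3 days at 37 °C. Intracellular HBV DNA quantified by qPCR against standard curve, viability by ATP content; inhibition relative to DMSO control, EC50/EC90/CC50 by non-linear regression.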
Background: Real-time PCR tracks product formation cycle by cycle.
On to `CC1Cn2c(c(C(=O)NCc3ccccc3-c3ccncn3)n(-c3ccc(OC4CC4)cc3)c2=O)CN1C(=O)c1ccc(Br)c(C(F)F)c1` (single isomer, unassigned) [Compound 16b, 7-[4-bromo-3-(difluoromethyl)benzoyl]-2-[4-(cyclopropoxy)phenyl]-6-methyl-3-oxo-N-[(2-pyrimidin-4-ylphenyl)methyl]-6,8-dihydro-5H-imidazo[1,5-a]pyrazine-1-carboxamide], for which the EC50 was under 50 nM.
The same measure, in the same setting: next, `CC1Cn2c(c(C(=O)NCc3ccccc3-c3ccc(N)nn3)n(-c3ccc(OC4CC4)cc3)c2=O)CN1C(=O)c1ccc(Br)c(Cl)c1` (single isomer, unassigned) [Compound 10a, N-[[2-(6-aminopyridazin-3-yl)phenyl]methyl]-7-(4-bromo-3-chloro-benzoyl)-2-[4-(cyclopropoxy)phenyl]-6-methyl-3-oxo-6,8-dihydro-5H-imidazo[1,5-a]pyrazine-1-carboxamide]: 500 to 5000 nM; `CC1Cn2c(c(C(=O)NCc3ccccc3-c3ccncn3)n(-c3ccc(OC4CC4)cc3)c2=O)CN1C(=O)c1ccc(Br)c(Cl)c1` (single isomer, unassigned) [Compound 9b, 7-(4-bromo-3-chloro-benzoyl)-2-[4-(cyclopropoxy)phenyl]-6-methyl-3-oxo-N-[(2-pyrimidin-4-ylphenyl)methyl]-6,8-dihydro-5H-imidazo[1,5-a]pyrazine-1-carboxamide]: under 50 nM; `CC1Cn2c(c(C(=O)NCc3ccccc3-c3ncccn3)n(-c3ccc(OCC4(O)CC4)cc3)c2=O)CN1C(=O)c1ccc(Br)c(C(F)(F)F)c1` (single isomer, unassigned) [Compound 81b]: under 50 nM.
In the case of `CC1Cn2c(c(C(=O)NCc3c(F)cccc3Cl)n(-c3ccc(N4CC5(CN(C)C5)C4)cc3)c2=O)CN1C(=O)c1ccc(Br)c(C(F)(F)F)c1` (single isomer, unassigned) [Compound 106b], the EC50 lay within 50 to 500 nM.
As for `CC1Cn2c(c(C(=O)NCc3ccccc3-c3ccncn3)n(-c3ccc(N4CCC5(CN(C)C5)C4)cc3)c2=O)CN1C(=O)c1ccc(Br)c(C(F)(F)F)c1` (single isomer, unassigned) [Compound 88b], the EC50 lay in the range of 50 to 500 nM.

The assay is the same for the next values; noted with them: Hepatitis B virus, HepG2.117, 72 h, HBV DNA inhibition, 3 days incubation, read-out: EC50.
In the case of `C[C@@H]1Cn2c(c(C(=O)NCc3ccccc3-c3ccncn3)n(-c3ccc(N4CCN(C)[C@H](C(F)(F)F)C4)cc3)c2=O)CN1C(=O)c1ccc(Br)c(C(F)(F)F)c1` (mixture of isomers) [Compound 87a, (6RS)-7-[4-bromo-3-(trifluoromethyl)benzoyl]-6-methyl-2-[4-[(3S)-4-methyl-3-(trifluoromethyl)piperazin-1-yl]phenyl]-3-oxo-N-[(2-pyrimidin-4-ylphenyl)methyl]-6,8-dihydro-5H-imidazo[1,5-a]pyrazine-1-carboxamide], the EC50 was 50 to 500 nM.
For the molecule `CC1Cn2c(c(C(=O)NCc3ccccc3-c3ncccn3)n(-c3ccc(OC[C@H](C)O)cc3)c2=O)CN1C(=O)c1ccc(Br)c(C(F)(F)F)c1` (single isomer, unassigned) [Compound 65a], the EC50 was under 50 nM.
Take `CC1Cn2c(c(C(=O)NCc3ccccc3-c3cn(C)cn3)n(-c3ccc(OC4CC4)cc3)c2=O)CN1C(=O)c1ccc(Br)c(Cl)c1` (single isomer, unassigned) [Compound 18a, 7-(4-bromo-3-chloro-benzoyl)-2-[4-(cyclopropoxy)phenyl]-6-methyl-N-[[2-(1-methylimidazol-4-yl)phenyl]methyl]-3-oxo-6,8-dihydro-5H-imidazo[1,5-a]pyrazine-1-carboxamide]: the EC50 was 50 to 500 nM.
On to `C[C@H]1Cn2c(c(C(=O)NCc3ccccc3-c3ccncn3)n(-c3ccc(OC[C@H](O)C(F)(F)F)cc3)c2=O)CN1C(=O)c1ccc(Br)c(C(F)(F)F)c1` (racemic) [Compound 63b, (6SR)-7-[4-bromo-3-(trifluoromethyl)benzoyl]-6-methyl-3-oxo-N-[(2-pyrimidin-4-ylphenyl)methyl]-2-[4-[(25)-3,3,3-trifluoro-2-hydroxy-propoxy]phenyl]-6,8-dihydro-5H-imidazo[1,5-a]pyrazine-1-carboxamide], for which the EC50 is 50 to 500 nM.
Still for that read-out and setting: the figure for `C[C@H](COc1ccc(-n2c(C(=O)NCc3ccccc3-c3ncccn3)c3n(c2=O)C[C@@H](C)N(C(=O)c2ccc(Br)c(C(F)(F)F)c2)C3)cc1)N1CCOCC1` (single isomer, unassigned) [Compound 96a] is under 50 nM.
Same read-out and setting: the figure for `CC1Cn2c(c(C(=O)NCc3ccccc3-c3ccncn3)n(-c3ccc(N4CC5(CCN5C)C4)cc3)c2=O)CN1C(=O)c1ccc(Br)c(C(F)(F)F)c1` (single isomer, unassigned) [Compound 84a] is 50 to 500 nM; for `O=C(NCc1ccccc1)c1c2n(c(=O)n1-c1ccc3ocnc3c1)CCN(C(=O)c1ccc(Br)c(Cl)c1)C2` [Compound 126, 2-(1,3-benzoxazol-5-yl)-N-benzyl-7-(4-bromo-3-chloro-benzoyl)-3-oxo-6,8-dihydro-5H-imidazo[1,5-a]pyrazine-1-carboxamide] it is 500 to 5000 nM; for `CC1Cn2c(c(C(=O)NCc3ccccc3-c3ccncn3)n(-c3ccc4nn(CC(F)(F)F)cc4c3)c2=O)CN1C(=O)c1ccc(Br)c(C(F)(F)F)c1` (single isomer, unassigned) [Compound 79a] it is 50 to 500 nM.
Still for that read-out and setting: the figure for `CC1Cn2c(c(C(=O)NCc3ccccc3-c3ncccn3)n(-c3ccc4c(cnn4C[C@@H](O)C(F)(F)F)c3)c2=O)CN1C(=O)c1ccc(Br)c(C(F)(F)F)c1` (single isomer, unassigned) [Compound 101a] is 50 to 500 nM.
Consider `CC1Cn2c(c(C(=O)NCc3c(F)cccc3-n3cccn3)n(-c3ccc(OC4CC4)cc3)c2=O)CN1C(=O)c1ccc(Br)c(Cl)c1` (single isomer, unassigned) [Compound 24a], for which the EC50 was in the range of 50 to 500 nM.
On the same count and under the same terms, the figure for `CNc1ccnc(-c2ccccc2CNC(=O)c2c3n(c(=O)n2-c2ccc(OC4CC4)cc2)CC(C)N(C(=O)c2ccc(Br)c(C(F)(F)F)c2)C3)n1` (racemic) [Compound 28a, rac-(6R)-7-[4-bromo-3-(trifluoromethyl)benzoyl]-2-[4-(cyclopropoxy)phenyl]-6-methyl-N-[[2-[4-(methylamino)pyrimidin-2-yl]phenyl]methyl]-3-oxo-6,8-dihydro-5H-imidazo[1,5-a]pyrazine-1-carboxamide] is under 50 nM; for `CC(C)(O)COc1ccc(-n2c(C(=O)NCc3ccccc3)c3n(c2=O)CCN(C(=O)c2ccc(Br)c(Cl)c2)C3)cc1` [Compound 114, N-benzyl-7-(4-bromo-3-chloro-benzoyl)-2-[4-(2-hydroxy-2-methyl-propoxy)phenyl]-3-oxo-6,8-dihydro-5H-imidazo[1,5-a]pyrazine-1-carboxamide] it is 50 to 500 nM.
